Source: ChEMBL document CHEMBL3885881, “DrugMatrix”

Organism: Rattus norvegicus
Experiment: DrugMatrix - Regimen: Daily Repeat
Type: toxicity, organism-based, Sprague-Dawley
Design: regimen Daily Repeat, gender Male, age 6-8 weeks
Settings: in vivo, po, route oral GAVAGE, vehicle 100 % WATER; for ABSOLUTE BASOPHIL / ABSOLUTE EOSINOPHIL / ABSOLUTE LYMPHOCYTE / ABSOLUTE MONOCYTE / ABSOLUTE SEGMENTED NEUTROPHIL / BASOPHIL / EOSINOPHIL / ERYTHROCYTE COUNT / HEMATOCRIT / HEMOGLOBIN / LEUKOCYTE COUNT / LYMPHOCYTE / MEAN CORPUSCULAR HEMOGLOBIN / MEAN CORPUSCULAR HEMOGLOBIN CONCENTRATION / MEAN CORPUSCULAR VOLUME / MONOCYTE / NEUTROPHIL / NUCLEATED RED BLOOD CELLS / PLATELET COUNT: tissue Blood; for ALANINE AMINOTRANSFERASE / ALBUMIN / ALKALINE PHOSPHATASE / ASPARTATE AMINOTRANSFERASE / BLOOD UREA NITROGEN / CARBON DIOXIDE / CHLORIDE / CHOLESTEROL / CREATINE PHOSPHOKINASE / CREATININE / GLUCOSE / LACTATE DEHYDROGENASE / LIPASE / PHOSPHORUS / POTASSIUM / SODIUM / TOTAL BILIRUBIN / TOTAL PROTEIN / URIC ACID: tissue Plasma
[1] = 20 mg/kg, 72 h, dose level Low, time 3 day
[2] = 20 mg/kg, 120 h, dose level Low, time 5 day
[3] = 2000 mg/kg, 72 h, dose level High, time 3 day
[4] = 2000 mg/kg, 120 h, dose level High, time 5 day

## C[C@H]1O[C@H](O[C@H]2[C@H](O)[C@@H](O)[C@@H](O[C@H]3[C@H](O)[C@@H](O)C(O)O[C@@H]3CO)O[C@@H]2CO)[C@H](O)[C@@H](O)[C@@H]1N[C@H]1C=C(CO)[C@@H](O)[C@H](O)[C@H]1O (some centres not stated) [ACARBOSE]
[1]
  ABSOLUTE BASOPHIL: 0 CELLS/uL
  ABSOLUTE EOSINOPHIL: 64.67 CELLS/uL
  ABSOLUTE LYMPHOCYTE: 10120.67 CELLS/uL
  ABSOLUTE MONOCYTE: 0 CELLS/uL
  ABSOLUTE SEGMENTED NEUTROPHIL: 948 CELLS/uL
  BASOPHIL: 0%
  EOSINOPHIL: 0.67%
  ERYTHROCYTE COUNT: 5.03 x10E6/uL
  HEMATOCRIT: 31.8%
  HEMOGLOBIN: 12.87 G/DL
  LEUKOCYTE COUNT: 11.13 x10E3/uL
  LYMPHOCYTE: 91.33%
  MEAN CORPUSCULAR HEMOGLOBIN: 25.6 pg
  MEAN CORPUSCULAR HEMOGLOBIN CONCENTRATION: 40.47 G/DL
  MEAN CORPUSCULAR VOLUME: 63.17 fL
  MONOCYTE: 0%
  NEUTROPHIL: 8%
  NUCLEATED RED BLOOD CELLS: 0 /100WBC
  PLATELET COUNT: 1088.33 x10E3/uL
  ALANINE AMINOTRANSFERASE: 51.33 u/L
  ALBUMIN: 4.1 G/DL
  ALKALINE PHOSPHATASE: 389.33 u/L
  ASPARTATE AMINOTRANSFERASE: 87.67 u/L
  BLOOD UREA NITROGEN: 16.67 mg/dL
  CARBON DIOXIDE: 24.33 mmol/L
  CHLORIDE: 102.33 MEQ/L
  CHOLESTEROL: 70.33 mg/dL
  CREATINE PHOSPHOKINASE: 377 u/L
  CREATININE: 0.18 mg/dL
  GLUCOSE: 148.33 mg/dL
  LACTATE DEHYDROGENASE: 368.33 u/L
  LIPASE: 8.33 u/L
  PHOSPHORUS: 14.03 mg/dL
  POTASSIUM: 6.96 MEQ/L
  SODIUM: 145.97 MEQ/L
  TOTAL BILIRUBIN: 0.23 mg/dL
  TOTAL PROTEIN: 5.73 G/DL
  URIC ACID: 1.43 mg/dL
[2]
  ABSOLUTE BASOPHIL: 0 CELLS/uL
  ABSOLUTE EOSINOPHIL: 33.67 CELLS/uL
  ABSOLUTE LYMPHOCYTE: 11112 CELLS/uL
  ABSOLUTE MONOCYTE: 101.33 CELLS/uL
  ABSOLUTE SEGMENTED NEUTROPHIL: 919.67 CELLS/uL
  BASOPHIL: 0%
  EOSINOPHIL: 0.33%
  ERYTHROCYTE COUNT: 5.14 x10E6/uL
  HEMATOCRIT: 33.7%
  HEMOGLOBIN: 13.33 G/DL
  LEUKOCYTE COUNT: 12.17 x10E3/uL
  LYMPHOCYTE: 91%
  MEAN CORPUSCULAR HEMOGLOBIN: 26 pg
  MEAN CORPUSCULAR HEMOGLOBIN CONCENTRATION: 39.57 G/DL
  MEAN CORPUSCULAR VOLUME: 65.63 fL
  MONOCYTE: 1%
  NEUTROPHIL: 7.67%
  NUCLEATED RED BLOOD CELLS: 1 /100WBC
  PLATELET COUNT: 1353.33 x10E3/uL
  ALANINE AMINOTRANSFERASE: 52.33 u/L
  ALBUMIN: 4.4 G/DL
  ALKALINE PHOSPHATASE: 361.67 u/L
  ASPARTATE AMINOTRANSFERASE: 74.67 u/L
  BLOOD UREA NITROGEN: 17.33 mg/dL
  CARBON DIOXIDE: 27.33 mmol/L
  CHLORIDE: 101.33 MEQ/L
  CHOLESTEROL: 74 mg/dL
  CREATINE PHOSPHOKINASE: 186 u/L
  CREATININE: 0.17 mg/dL
  GLUCOSE: 180.33 mg/dL
  LACTATE DEHYDROGENASE: 91.33 u/L
  LIPASE: 8.67 u/L
  PHOSPHORUS: 13.03 mg/dL
  POTASSIUM: 6.7 MEQ/L
  SODIUM: 145.5 MEQ/L
  TOTAL BILIRUBIN: 0.2 mg/dL
  TOTAL PROTEIN: 6.1 G/DL
  URIC ACID: 1.6 mg/dL
[3]
  ABSOLUTE BASOPHIL: 0 CELLS/uL
  ABSOLUTE EOSINOPHIL: 47 CELLS/uL
  ABSOLUTE LYMPHOCYTE: 15977.33 CELLS/uL
  ABSOLUTE MONOCYTE: 106.67 CELLS/uL
  ABSOLUTE SEGMENTED NEUTROPHIL: 835.67 CELLS/uL
  BASOPHIL: 0%
  EOSINOPHIL: 0.33%
  ERYTHROCYTE COUNT: 5.96 x10E6/uL
  HEMATOCRIT: 39.13%
  HEMOGLOBIN: 15.37 G/DL
  LEUKOCYTE COUNT: 16.97 x10E3/uL
  LYMPHOCYTE: 94%
  MEAN CORPUSCULAR HEMOGLOBIN: 25.73 pg
  MEAN CORPUSCULAR HEMOGLOBIN CONCENTRATION: 39.27 G/DL
  MEAN CORPUSCULAR VOLUME: 65.6 fL
  MONOCYTE: 0.67%
  NEUTROPHIL: 5%
  NUCLEATED RED BLOOD CELLS: 1 /100WBC
  PLATELET COUNT: 1523.33 x10E3/uL
  ALANINE AMINOTRANSFERASE: 43 u/L
  ALBUMIN: 4.63 G/DL
  ALKALINE PHOSPHATASE: 324.67 u/L
  ASPARTATE AMINOTRANSFERASE: 88 u/L
  BLOOD UREA NITROGEN: 20.33 mg/dL
  CARBON DIOXIDE: 28.33 mmol/L
  CHLORIDE: 105.67 MEQ/L
  CHOLESTEROL: 86 mg/dL
  CREATINE PHOSPHOKINASE: 443.33 u/L
  CREATININE: 0.21 mg/dL
  GLUCOSE: 160.67 mg/dL
  LACTATE DEHYDROGENASE: 447.33 u/L
  LIPASE: 10 u/L
  PHOSPHORUS: 14.07 mg/dL
  POTASSIUM: 7.15 MEQ/L
  SODIUM: 150.93 MEQ/L
  TOTAL BILIRUBIN: 0.1 mg/dL
  TOTAL PROTEIN: 6.8 G/DL
  URIC ACID: 2.5 mg/dL
[4]
  ABSOLUTE BASOPHIL: 0 CELLS/uL
  ABSOLUTE EOSINOPHIL: 0 CELLS/uL
  ABSOLUTE LYMPHOCYTE: 17167.33 CELLS/uL
  ABSOLUTE MONOCYTE: 176.67 CELLS/uL
  ABSOLUTE SEGMENTED NEUTROPHIL: 1189.33 CELLS/uL
  BASOPHIL: 0%
  EOSINOPHIL: 0%
  ERYTHROCYTE COUNT: 5.82 x10E6/uL
  HEMATOCRIT: 35.33%
  HEMOGLOBIN: 14.37 G/DL
  LEUKOCYTE COUNT: 18.53 x10E3/uL
  LYMPHOCYTE: 92.33%
  MEAN CORPUSCULAR HEMOGLOBIN: 24.67 pg
  MEAN CORPUSCULAR HEMOGLOBIN CONCENTRATION: 40.67 G/DL
  MEAN CORPUSCULAR VOLUME: 60.77 fL
  MONOCYTE: 1%
  NEUTROPHIL: 6.67%
  NUCLEATED RED BLOOD CELLS: 0 /100WBC
  PLATELET COUNT: 1249.33 x10E3/uL
  ALANINE AMINOTRANSFERASE: 68 u/L
  ALBUMIN: 4.23 G/DL
  ALKALINE PHOSPHATASE: 385.33 u/L
  ASPARTATE AMINOTRANSFERASE: 101.67 u/L
  BLOOD UREA NITROGEN: 21.67 mg/dL
  CARBON DIOXIDE: 33.67 mmol/L
  CHLORIDE: 102.33 MEQ/L
  CHOLESTEROL: 76.67 mg/dL
  CREATINE PHOSPHOKINASE: 356 u/L
  CREATININE: 0.23 mg/dL
  GLUCOSE: 153.67 mg/dL
  LACTATE DEHYDROGENASE: 345 u/L
  LIPASE: 10.33 u/L
  PHOSPHORUS: 12.8 mg/dL
  POTASSIUM: 7.54 MEQ/L
  SODIUM: 145.93 MEQ/L
  TOTAL BILIRUBIN: 0.1 mg/dL
  TOTAL PROTEIN: 5.93 G/DL
  URIC ACID: 1.6 mg/dL
